Data: the supplement of paper PMC4862054

Each molecule was assayed on CAL-85-1 (assay: normalised response (% of control), CellTox Green; higher = less cell death (100 = DMSO, 0 = benzethonium chloride kill control)). Conditions: incubation time: 72 h.
Method in brief: (§1)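 Breast cancer cell lines were exposed for 72 h in 384-well plates to compound at 5 concentrations, 10-fold apart, covering a 10,000-fold range fixed for each compound. Plates were read for CellTox Green fluorescence and CellTiter-Glo luminescence and normalised to 0.1 % DMSO (100) and a positive kill control (0). Each value is the normalised signal at one concentration of the series.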
CC[C@H](CO)Nc1nc(NCc2ccccc2)c2ncn(C(C)C)c2n1 [Seliciclib] (100 nM) was tested, and the normalised response was 92.4%.
In the case of C=CCN(/C=C1/C(=O)O[C@H](COC)[C@@]2(C)C1=C(O)C(=O)C1=C2[C@H](OC(C)=O)C[C@]2(C)C(=O)CC[C@@H]12)CC=C [Sonolisib] (100 nM), the normalised response is reported as 106%.

Each molecule was assayed on MDA-MB-231 in the same assay as above. Conditions: incubation time: 72 h.
Method in brief: as §1
C/C(=C\c1csc(C)n1)[C@@H]1C[C@@H]2O[C@]2(C)CCC[C@H](C)[C@H](O)[C@@H](C)C(=O)C(C)(C)[C@@H](O)CC(=O)N1 [Ixabepilone] (10 nM) was tested, and the normalised response was 102%.
Molecule CN(C)C(=N)NC(=N)N [Metformin] (1000 nM) has a normalised response of 63.5%.
Work on CN(Cc1cnc2nc(N)nc(N)c2n1)c1ccc(C(=O)N[C@@H](CCC(=O)O)C(=O)O)cc1 [Methotrexate] (500 nM) yielded a normalised response of 84.1%.
Cc1cn(-c2cc(NC(=O)c3ccc(C)c(Nc4nccc(-c5cccnc5)n4)c3)cc(C(F)(F)F)c2)cn1 [Nilotinib] (100 nM) showed a normalised response of 110%.
For CC[C@H](CO)Nc1nc(NCc2ccccc2)c2ncn(C(C)C)c2n1 [Seliciclib] (100 nM), the normalised response was 96%.
Work on C=CCN(/C=C1/C(=O)O[C@H](COC)[C@@]2(C)C1=C(O)C(=O)C1=C2[C@H](OC(C)=O)C[C@]2(C)C(=O)CC[C@@H]12)CC=C [Sonolisib] (100 nM) yielded a normalised response of 110%.

What follows are molecules tested on HCC1599 in the same assay as above. Conditions: incubation time: 72 h.
Method in brief: as §1
C/C(=C\c1csc(C)n1)[C@@H]1C[C@@H]2O[C@]2(C)CCC[C@H](C)[C@H](O)[C@@H](C)C(=O)C(C)(C)[C@@H](O)CC(=O)N1 [Ixabepilone] (10 nM) was tested, and the normalised response was 101%.
CN(C)C(=N)NC(=N)N [Metformin] (1000 nM) gave a normalised response of 95.2%.
CN(Cc1cnc2nc(N)nc(N)c2n1)c1ccc(C(=O)N[C@@H](CCC(=O)O)C(=O)O)cc1 [Methotrexate] (500 nM) showed a normalised response of 102%.
Cc1cn(-c2cc(NC(=O)c3ccc(C)c(Nc4nccc(-c5cccnc5)n4)c3)cc(C(F)(F)F)c2)cn1 [Nilotinib] (100 nM) gave a normalised response of 105%.
CC[C@H](CO)Nc1nc(NCc2ccccc2)c2ncn(C(C)C)c2n1 [Seliciclib] (100 nM) gave a normalised response of 109%.
C=CCN(/C=C1/C(=O)O[C@H](COC)[C@@]2(C)C1=C(O)C(=O)C1=C2[C@H](OC(C)=O)C[C@]2(C)C(=O)CC[C@@H]12)CC=C [Sonolisib] (100 nM) gave a normalised response of 115%.

These molecules were tested on HCC1937 in the same assay as above. Conditions: incubation time: 72 h.
Method in brief: as §1
C/C(=C\c1csc(C)n1)[C@@H]1C[C@@H]2O[C@]2(C)CCC[C@H](C)[C@H](O)[C@@H](C)C(=O)C(C)(C)[C@@H](O)CC(=O)N1 [Ixabepilone] (10 nM) gave a normalised response of 107%.
CN(C)C(=N)NC(=N)N [Metformin] (1000 nM) was tested, and the normalised response was 93.4%.
For CN(Cc1cnc2nc(N)nc(N)c2n1)c1ccc(C(=O)N[C@@H](CCC(=O)O)C(=O)O)cc1 [Methotrexate] (500 nM), the normalised response was 112%.
For Cc1cn(-c2cc(NC(=O)c3ccc(C)c(Nc4nccc(-c5cccnc5)n4)c3)cc(C(F)(F)F)c2)cn1 [Nilotinib] (100 nM), the normalised response was 103%.
For CC[C@H](CO)Nc1nc(NCc2ccccc2)c2ncn(C(C)C)c2n1 [Seliciclib] (100 nM), the normalised response was 118%.
Work on C=CCN(/C=C1/C(=O)O[C@H](COC)[C@@]2(C)C1=C(O)C(=O)C1=C2[C@H](OC(C)=O)C[C@]2(C)C(=O)CC[C@@H]12)CC=C [Sonolisib] (100 nM) yielded a normalised response of 121%.

The molecules below were run on HDQ-P1 in the same assay as above. Conditions: incubation time: 72 h.
Method in brief: as §1
In the case of C/C(=C\c1csc(C)n1)[C@@H]1C[C@@H]2O[C@]2(C)CCC[C@H](C)[C@H](O)[C@@H](C)C(=O)C(C)(C)[C@@H](O)CC(=O)N1 [Ixabepilone] (10 nM), the normalised response is reported as 101%.
In the case of CN(C)C(=N)NC(=N)N [Metformin] (1000 nM), the normalised response is reported as 70.7%.
Work on CN(Cc1cnc2nc(N)nc(N)c2n1)c1ccc(C(=O)N[C@@H](CCC(=O)O)C(=O)O)cc1 [Methotrexate] (500 nM) yielded a normalised response of 102%.
Molecule Cc1cn(-c2cc(NC(=O)c3ccc(C)c(Nc4nccc(-c5cccnc5)n4)c3)cc(C(F)(F)F)c2)cn1 [Nilotinib] (100 nM) has a normalised response of 68.1%.
CC[C@H](CO)Nc1nc(NCc2ccccc2)c2ncn(C(C)C)c2n1 [Seliciclib] (100 nM) gave a normalised response of 105%.
In the case of C=CCN(/C=C1/C(=O)O[C@H](COC)[C@@]2(C)C1=C(O)C(=O)C1=C2[C@H](OC(C)=O)C[C@]2(C)C(=O)CC[C@@H]12)CC=C [Sonolisib] (100 nM), the normalised response is reported as 63.5%.

These molecules were tested on CAL-51 in the same assay as above. Conditions: incubation time: 72 h.
Method in brief: as §1
Work on C/C(=C\c1csc(C)n1)[C@@H]1C[C@@H]2O[C@]2(C)CCC[C@H](C)[C@H](O)[C@@H](C)C(=O)C(C)(C)[C@@H](O)CC(=O)N1 [Ixabepilone] (10 nM) yielded a normalised response of 102%.
Work on CN(C)C(=N)NC(=N)N [Metformin] (1000 nM) yielded a normalised response of 71.1%.
CN(Cc1cnc2nc(N)nc(N)c2n1)c1ccc(C(=O)N[C@@H](CCC(=O)O)C(=O)O)cc1 [Methotrexate] (500 nM) was tested, and the normalised response was 104%.
Molecule Cc1cn(-c2cc(NC(=O)c3ccc(C)c(Nc4nccc(-c5cccnc5)n4)c3)cc(C(F)(F)F)c2)cn1 [Nilotinib] (100 nM) has a normalised response of 96.3%.
CC[C@H](CO)Nc1nc(NCc2ccccc2)c2ncn(C(C)C)c2n1 [Seliciclib] (100 nM) showed a normalised response of 105%.
C=CCN(/C=C1/C(=O)O[C@H](COC)[C@@]2(C)C1=C(O)C(=O)C1=C2[C@H](OC(C)=O)C[C@]2(C)C(=O)CC[C@@H]12)CC=C [Sonolisib] (100 nM) was tested, and the normalised response was 102%.

Each molecule was assayed on MDA-MB-468 in the same assay as above. Conditions: incubation time: 72 h.
Method in brief: as §1
Work on C/C(=C\c1csc(C)n1)[C@@H]1C[C@@H]2O[C@]2(C)CCC[C@H](C)[C@H](O)[C@@H](C)C(=O)C(C)(C)[C@@H](O)CC(=O)N1 [Ixabepilone] (10 nM) yielded a normalised response of 123%.
CN(C)C(=N)NC(=N)N [Metformin] (1000 nM) gave a normalised response of 61%.
With CN(Cc1cnc2nc(N)nc(N)c2n1)c1ccc(C(=O)N[C@@H](CCC(=O)O)C(=O)O)cc1 [Methotrexate] (500 nM) the normalised response was 118%.
Work on Cc1cn(-c2cc(NC(=O)c3ccc(C)c(Nc4nccc(-c5cccnc5)n4)c3)cc(C(F)(F)F)c2)cn1 [Nilotinib] (100 nM) yielded a normalised response of 123%.
Work on CC[C@H](CO)Nc1nc(NCc2ccccc2)c2ncn(C(C)C)c2n1 [Seliciclib] (100 nM) yielded a normalised response of 102%.
C=CCN(/C=C1/C(=O)O[C@H](COC)[C@@]2(C)C1=C(O)C(=O)C1=C2[C@H](OC(C)=O)C[C@]2(C)C(=O)CC[C@@H]12)CC=C [Sonolisib] (100 nM) was tested, and the normalised response was 112%.

These molecules were tested on CAL-148 in the same assay as above. Conditions: incubation time: 72 h.
Method in brief: as §1
With C/C(=C\c1csc(C)n1)[C@@H]1C[C@@H]2O[C@]2(C)CCC[C@H](C)[C@H](O)[C@@H](C)C(=O)C(C)(C)[C@@H](O)CC(=O)N1 [Ixabepilone] (10 nM) the normalised response was 94.7%.
In the case of CN(C)C(=N)NC(=N)N [Metformin] (1000 nM), the normalised response is reported as 95.7%.
CN(Cc1cnc2nc(N)nc(N)c2n1)c1ccc(C(=O)N[C@@H](CCC(=O)O)C(=O)O)cc1 [Methotrexate] (500 nM) showed a normalised response of 102%.
Cc1cn(-c2cc(NC(=O)c3ccc(C)c(Nc4nccc(-c5cccnc5)n4)c3)cc(C(F)(F)F)c2)cn1 [Nilotinib] (100 nM) was tested, and the normalised response was 93.5%.
CC[C@H](CO)Nc1nc(NCc2ccccc2)c2ncn(C(C)C)c2n1 [Seliciclib] (100 nM) was tested, and the normalised response was 108%.
C=CCN(/C=C1/C(=O)O[C@H](COC)[C@@]2(C)C1=C(O)C(=O)C1=C2[C@H](OC(C)=O)C[C@]2(C)C(=O)CC[C@@H]12)CC=C [Sonolisib] (100 nM) gave a normalised response of 98.6%.

The molecules below were run on MDA-MB-453 in the same assay as above. Conditions: incubation time: 72 h.
Method in brief: as §1
C/C(=C\c1csc(C)n1)[C@@H]1C[C@@H]2O[C@]2(C)CCC[C@H](C)[C@H](O)[C@@H](C)C(=O)C(C)(C)[C@@H](O)CC(=O)N1 [Ixabepilone] (10 nM) gave a normalised response of 93.6%.
In the case of CN(C)C(=N)NC(=N)N [Metformin] (1000 nM), the normalised response is reported as 91%.
With CN(Cc1cnc2nc(N)nc(N)c2n1)c1ccc(C(=O)N[C@@H](CCC(=O)O)C(=O)O)cc1 [Methotrexate] (500 nM) the normalised response was 106%.
For Cc1cn(-c2cc(NC(=O)c3ccc(C)c(Nc4nccc(-c5cccnc5)n4)c3)cc(C(F)(F)F)c2)cn1 [Nilotinib] (100 nM), the normalised response was 85.7%.
In the case of CC[C@H](CO)Nc1nc(NCc2ccccc2)c2ncn(C(C)C)c2n1 [Seliciclib] (100 nM), the normalised response is reported as 104%.
C=CCN(/C=C1/C(=O)O[C@H](COC)[C@@]2(C)C1=C(O)C(=O)C1=C2[C@H](OC(C)=O)C[C@]2(C)C(=O)CC[C@@H]12)CC=C [Sonolisib] (100 nM) showed a normalised response of 106%.

The molecules below were run on MCF-10A in the same assay as above. Conditions: incubation time: 72 h.
Method in brief: as §1
C/C(=C\c1csc(C)n1)[C@@H]1C[C@@H]2O[C@]2(C)CCC[C@H](C)[C@H](O)[C@@H](C)C(=O)C(C)(C)[C@@H](O)CC(=O)N1 [Ixabepilone] (10 nM) gave a normalised response of 84.4%.
In the case of CN(C)C(=N)NC(=N)N [Metformin] (1000 nM), the normalised response is reported as -3.22%.
In the case of CN(Cc1cnc2nc(N)nc(N)c2n1)c1ccc(C(=O)N[C@@H](CCC(=O)O)C(=O)O)cc1 [Methotrexate] (500 nM), the normalised response is reported as 96.5%.
For Cc1cn(-c2cc(NC(=O)c3ccc(C)c(Nc4nccc(-c5cccnc5)n4)c3)cc(C(F)(F)F)c2)cn1 [Nilotinib] (100 nM), the normalised response was 99.2%.
CC[C@H](CO)Nc1nc(NCc2ccccc2)c2ncn(C(C)C)c2n1 [Seliciclib] (100 nM) showed a normalised response of 104%.
C=CCN(/C=C1/C(=O)O[C@H](COC)[C@@]2(C)C1=C(O)C(=O)C1=C2[C@H](OC(C)=O)C[C@]2(C)C(=O)CC[C@@H]12)CC=C [Sonolisib] (100 nM) gave a normalised response of 72.8%.
